Measurements as given in US8153360B2, “Flavivirus fusion inhibitors” (The Administrators of the Tulane Educational Fund, priority 2002, dated 2012).

What was measured:
[1] = tested on: H77-E1E2 pseudotype expressing envelope glycoproteins E1 and E2 of the H77 strain of HCV; assay: HCV pseudotype infectivity, luciferase activity of cell lysates; type: cell-based, hepatitis C virus; conditions: peptide about 25 μM (asterisked peptides 10 μM or less); for H77-E1E2 number of luciferase units (lumens) produced after infection: 72 h at 37° C., vehicle 113,733; for Percent Inhibition (H77-E1E2 HCV pseudotype infectivity): relative to DMSO vehicle
[2] = tested on: pseudotype expressing the envelope glycoprotein of murine leukemia virus (MLV); assay: MLV pseudotype infectivity, luciferase activity (peptide/cytotoxicity control); type: cell-based; conditions: peptide about 25 μM (asterisked peptides 10 μM or less); for MLV number of luciferase units (lumens) produced after infection: 72 h at 37° C., vehicle 439,158; for Percent inhibition (MLV pseudotype infectivity): relative to DMSO vehicle
HIV-1 [3] = conditions: preliminary results from phase III clinical trials; cited from earlier work
HIV-1 [4] = conditions: cited from earlier work

Substance	H77-E1E2 number of luciferase units (lumens) produced after infection [1]	MLV number of luciferase units (lumens) produced after infection [2]	Percent inhibition (MLV pseudotype infectivity) [2]	Percent Inhibition (H77-E1E2 HCV pseudotype infectivity) [1]	Effect on HIV-1 load in AIDS patients (HIV-1 [3])	Inhibition of HIV-1 infectivity (HIV-1 [4])
DAILHTPGCVPCVREGNA [Peptide 57]	169,860 luciferase units (lumens)	331,852 luciferase units (lumens)	24.44%	–	–	–
AALVVAQLLRIPQAIMDM [Peptide 73]	100,666 luciferase units (lumens)	433,001 luciferase units (lumens)	1.40%	–	–	–
WVAVTPTVATRDGKLPTT [Peptide 60]	98,766 luciferase units (lumens)	340,384 luciferase units (lumens)	22.49%	13.16%	–	–
YPGHITGHRMANMMMNW [Peptide 70]	15,717 luciferase units (lumens)	553,120 luciferase units (lumens)	−25.95%	–	–	–
VGNWAKVLVVLLLFAGVD [Peptide 78]	137,700 luciferase units (lumens)	402,953 luciferase units (lumens)	8.24%	–	–	–
QDCNCSIYPGHITGHRMA [Peptide 69]	196,922 luciferase units (lumens)	354,027 luciferase units (lumens)	19.39%	–	–	–
MMNWSPTAALVVAQLLRI [Peptide 72]	75,763 luciferase units (lumens)	392,680 luciferase units (lumens)	10.58%	–	–	–
IMDMIAGAHWGVLAGIKY [Peptide 75]	113,359 luciferase units (lumens)	420,026 luciferase units (lumens)	4.36%	–	–	–
GCVPCVREGNASRCWVAV [Peptide 58]	118,767 luciferase units (lumens)	329,895 luciferase units (lumens)	24.98%	–	–	–
ALYVGDLCGSVFLVGQLF [Peptide 65]	87,726 luciferase units (lumens)	491,789 luciferase units (lumens)	−11.98%	–	–	–
SSGLYHVTNDCPNSSIVY [Peptide 54]	74 luciferase units (lumens)	280,113 luciferase units (lumens)	36.22%	–	–	–
VATRDGKLPTTQLRRHID [Peptide 61]	148,796 luciferase units (lumens)	423,925 luciferase units (lumens)	3.47%	–	–	–
GQLFTFSPRHHWTTQDCN [Peptide 67]	64,601 luciferase units (lumens)	357,577 luciferase units (lumens)	28.58%	–	–	–
SAYQVRNSSGLYHVTNDC [Peptide 53]	113,469 luciferase units (lumens)	443,528 luciferase units (lumens)	−9.95%	–	–	–
SCLTVPASAYQVRNSSGL [Peptide 52]	133,259 luciferase units (lumens)	533,179 luciferase units (lumens)	−21.4%	–	–	–
LLRIPQAIMDMIAGAHWG [Peptide 74]	32,888 luciferase units (lumens)	467,876 luciferase units (lumens)	−6.54%	–	–	–
HRMANMMMNWSPTAALV [Peptide 71]	83,489 luciferase units (lumens)	533,765 luciferase units (lumens)	−21.54%	–	–	–
enfuvirtide	–	–	–	–	substantially reduce HIV-1 load	inhibit HIV-1 infectivity
GIKYFSMVGNWAKVLVVL [Peptide 77]	56,425 luciferase units (lumens)	321,076 luciferase units (lumens)	26.89%	–	–	–
AHWGVLAGIKYFSMVGNW [Peptide 76]	96,283 luciferase units (lumens)	473,757 luciferase units (lumens)	−7.88%	–	–	–
LVVLLLFAGVDAETHVTG [Peptide 79]	101,702 luciferase units (lumens)	740,034 luciferase units (lumens)	−68.51%	–	–	–
SIVYEAADAILHTPGCVP [Peptide 56]	65,612 luciferase units (lumens)	433,459 luciferase units (lumens)	1.30%	–	–	–
RHIDLLVGSATLCSALYV [Peptide 63]	57,915 luciferase units (lumens)	438,440 luciferase units (lumens)	0.16%	–	–	–
WVAVTPTVATRDGKLPTT [Peptide 59]	91,794 luciferase units (lumens)	446,063 luciferase units (lumens)	−1.57%	19.29%	–	–
TNDCPNSSVVYEAADAIL [Peptide 55]	112,470 luciferase units (lumens)	447,957 luciferase units (lumens)	−2.00%	–	–	–
CGSVFLVGQLFTFSPRHH [Peptide 66]	23,387 luciferase units (lumens)	189,683 luciferase units (lumens)	56.81%	–	–	–
PRHHWTTQDCNCSIYPGH [Peptide 68]	79,297 luciferase units (lumens)	498,991 luciferase units (lumens)	−13.62%	–	–	–
LPTTQLRRHIDLLVGSAT [Peptide 62]	115,966 luciferase units (lumens)	415,014 luciferase units (lumens)	5.50%	–	–	–
GSATLCSALYVGDLCGSV [Peptide 64]	113,108 luciferase units (lumens)	316,948 luciferase units (lumens)	27.83%	–	–	–
